Structures are written as SMILES. Entries after “also recorded” stand apart in the source; their conditions may differ.

Experiment [1] relates to nasal cavity. Description: Gravimetric measurement of nasal secretions in a subject with rhinitis after NasoNeb rinsing. Type of experiment: in vivo, human. The following applies: NasoNeb rinse 5 sec at t=0, 2, 5 hr, D-Ala-OiPr 2 mg/mL, GlyOiPr 3 mg/mL; for Weight of individual blowouts of nasal secretions (average ± s.e.m.): vehicle 0.40±0.03 g; for 10-hr nasal secretion (avg. ± s.e.m): vehicle 3.53±0.44 g. The protocol:
A top-loading balance, sensitive to 1 mg, was used to measure phlegm secretions from the nose. A pre-weighed tissue paper was tared to zero, and after blowing into the tissue, the amount of exudate was recorded from the balance display. This measurement is an objective sign of nasal inflammation. Microbalances, sensitive to 1 mg, are now available online for less than $20. Conventional laboratory balances with the same capabilities are listed for $2000+ each but should now be obsolete. The convenience of an inexpensive method for quantifying phlegm output as an indicator of nasal pathology is part of the inventive steps.
FIG. 9. Inhibition of nasal secretions in a subject with rhinitis by topical administration of the preferred embodiments D-Ala-OiPr and GlyOiPr with a Nasoneb® apparatus. Rinsing of GlyOiPr and D-Ala-OiPr (dissolved 3 mg/ml and 2 mg/mL, respectively, in 1% ethanol and 2% polysorbate 80) was for 5 sec at t=0, 2, and 5 hr. Secretions were recorded for 10-15 hr per day. The 10-hr secretion (avg.±s.e.m) was vehicle 3.53±0.44 g, D-Ala-OiPr 1.70±0.27 g, GlyOiPr 1.32±0.32 g, with n=6, 5, 5 observations per group, respectively.
FIG. 10. Weights of individual blowouts of nasal secretions in a subject with rhinitis after topical administration of D-Ala-OiPr and GlyOiPr with a Nasoneb® apparatus. The vehicle or test substances were rinsed into the nasal cavity (0 mg/mL, 2 mg/mL and 3 mg/mL, respectively, for 5 sec at t=0, 2, and 5 hr). The data points are for individual “blowouts” from the nose, measured with tissue paper and balance. The data are plotted on a semi-log scale, so zero values are not shown. The average #s.e.m. for blowouts were: vehicle 0.40±0.03 g, D-Ala-OiPr 0.19±0.02 g, GlyOiPr 0.19±0.02 g, with n=70, 44, 42 observations per group, respectively.
In the first experimental step, the phlegm secretion must be accurately measured. That is, it is necessary to show what is “blown out” of the nose in patients with rhinitis (FIG. 8). The treatment goal is to reduce the accumulation of dense, slimy, viscous phlegm, which will otherwise ooze out of the nasal cavity. In practice, it was discovered that if treatment can reduce individual blowouts to <0.25 g/event, the subject with rhinitis becomes essentially “disease-free” and is able to have normal daily activities and sleep well at night. […] The top-loading microbalance method for quantifying phlegm weight is an excellent monitor of rhinitis intensity.
FIG. 9. […] The data points represent secretions recorded for 10-15 hr per day. These points were fitted by linear regression (GraphPad Prism), and the 10-hr secretion measured (avg.±s.e.m) as vehicle 3.53±0:44 g, D-Ala-OiPr 1.700:27 g; GlyOiPr 1.32±0.32 g, with n=6, 5, 5 observations per group, respectively. […]

The subject of experiment [2] is ostiomeatal complex. Description: Case studies: nebulized cooling agent in subjects with rhinitis and rhinosinusitis. Type of experiment: in vivo, human. The following applies: for Relief of stuffiness and breathing: NasoNeb delivery in subjects with rhinosinusitis. From the text: Eight subjects with rhinitis and rhinosinusitis volunteered to test cooling agents delivered with the NasoNeb® nebulizer (FIG. 3). The results were clear, robust, and evident. No statistical analysis was necessary. In a 3 to 5-day course of nebulization t.i.d., all subjects reported the ability to manage and control stuffed-up breathing in their activities. All reported comfortable sleep. The sounds of sniffling and congestion of the nose (“sniffles”), snorting, or gurgling were still present, but to a lesser degree. The subject felt it was easier to blow out liquids from the nasal cavity onto a tissue, and the volume and frequency of blowing decreased. Viscous yellow mucus was less in volume and density. The number of wipes deposited daily into a waste basket decreased by >50%. The subjects-were cheerful and enthusiastic because nasal discomfort was under control. As one subject remarked: “The stuffed-up nose problem is now history!” Severat of these cases are reported below as “Case Studies.”
The subject was given a NasoNeb® nebulizer (unavailable in China) and five individual bottles containing 15 mL of a 1% GlyOiPr solution (suspended in 2% Tween 80, 5% ethanol, and 92% water). They were shown how to load the NasoNeb canister with about 2 mL of liquid and activate the device for a 3-second dose into each nostril. The recommended dosage was three times a day, starting in the morning and at about 6-hour intervals, and for five days.
The subject agreed to using the NasoNeb nebulizer with a cooling agent. They were given a NasoNeb nebulizer and three bottles, each containing 15 ml of a 1% GlyOiPr solution (suspended in 2% Tween 80, 5% ethanol, and 92% water). They were shown how to load the NasoNeb canister with about 2 mL of liquid and activate the device for a 3-second dose into each nostril. The recommended dosage was three times a day, starting in the morning and at about 6-hour intervals, and for five days. After a 5-day trial, the subject noted a significant improvement in sleep and comfortable breathing. […] Their headaches were gone, and their appetite improved. They were advised to continue using the Nebulizer/coolant for another week and then on an as-needed basis. Their family has noticed that the subject has become less withdrawn, more engaging, and interested in their surroundings.
The subject volunteered for a trial with GlyOiPr. They were given a NasoNeb® machine and a plastic squeeze bottle containing 50 mL of GlyOiPr at 3 mg/mL suspended in 1% ethanol/2% polysorbate 80. They learned how to load the canister and activate the pump. Then, they were instructed to rinse their nose thoroughly first thing in the morning and then use the Nebulizer at 5 sec per nostril to deliver the solution. The procedure was to be repeated at 2 hours and 5 hours later to total three daily activations. The subject was interviewed after dosing for three days. They said breathing was much easier at night after the dosing, and they slept well. Nasal secretions were still present but less in volume. […] They were encouraged to use the Nebulizer as needed but not to exceed three daily doses. Three weeks after the start of the experiment, they reported that they were in complete control of their rhinitis. They would do a single dose at night before sleep and one in the morning when needed. They no longer felt congested, and the headaches were gone. The slimy phlegm in the nostrils was gone, and crusting was absent. Their nose felt clean. Their social life improved.
Their main complaint was episodes at night when they would wake up and not be able to breathe comfortably. Sleep apnea and lung disorders were ruled out, and the diagnosis was rhinosinusitis. This was confirmed by a computerized tomography scan and endoscopic examination by a qualified ENT specialist. They agreed to test the preferred embodiments GlyOnPr, GlyOiPr, D-Ala-OnPr, and D-Ala-OiPr systematically, one after the other.

Take `CC(C)OC(=O)[C@@H](C)NC(=O)[C@@H]1C[C@H](C)CC[C@H]1C(C)C` [D-Ala-OiPr, (R)-2-[((1R,2S,5R)-2-isopropyl-5-methyl-cyclohexanecarbonyl)amino]-propionic acid i-propyl ester]: in experiment [1], the “Weight of individual blowouts of nasal secretions (average ± s.e.m.)” value turned out to be 0.19 ± 0.02 g and the “10-hr nasal secretion (avg. ± s.e.m)” value is on record as 1.70±0.27 g. Moreover, the “Relief of stuffiness and breathing” value in experiment [2] is given as “provided relief”.

With `CC(C)OC(=O)CNC(=O)[C@@H]1C[C@H](C)CC[C@H]1C(C)C` [GlyOiPr, [((1R,2S,5R)-2-isopropyl-5-methyl-cyclohexanecarbonyl)-amino]-acetic acid isopropyl ester], in experiment [1], the “Weight of individual blowouts of nasal secretions (average ± s.e.m.)” value amounted to 0.19 ± 0.02 g and the “10-hr nasal secretion (avg. ± s.e.m)” value was 1.32±0.32 g. For the same compound, the “Number of Kleenex tissues used after treatment” value in experiment [2] (GlyOiPr by NasoNeb three times a day) was “about five per day; also recorded: decline by half”. Also, the “Relief of stuffiness and breathing” value in experiment [2] was “immediate sensation of comfortable cooling in the nose and the ability to have unimpeded breathing; also recorded: provided relief”. Further, the “Decrease in number of wipes used to blow the nose” value in experiment [2] (nebulization three times a day, several days) is on record as “at least 50%”.
